# Data taken from the NIST ThermoML archive (doi:10.1021/je034162x).
# Numbers after ± are expanded uncertainties.
# Details: 101.33 kPa, Liquid, Hot wire method
smiles,measurement,setting,value
"Cc1cc(C)cc(C)c1 [1,3,5-trimethylbenzene]",thermal conductivity,258.66 K,0.1434 ± 0.0014 W/m/K
same,thermal conductivity,258.83 K,0.1434 ± 0.0014 W/m/K
same,thermal conductivity,258.95 K,0.1433 ± 0.0014 W/m/K
same,thermal diffusivity,259.23 K,9.77e-08 ± 2e-09 m2/s
same,thermal diffusivity,259.67 K,9.83e-08 ± 2e-09 m2/s
same,thermal diffusivity,259.96 K,9.82e-08 ± 2e-09 m2/s
same,thermal conductivity,276.88 K,0.14 ± 0.0014 W/m/K
same,thermal conductivity,277.04 K,0.1398 ± 0.0014 W/m/K
same,thermal conductivity,277.16 K,0.1398 ± 0.0014 W/m/K
same,thermal diffusivity,277.47 K,9.49e-08 ± 1.9e-09 m2/s
same,thermal diffusivity,277.87 K,9.44e-08 ± 1.9e-09 m2/s
same,thermal diffusivity,278.16 K,9.45e-08 ± 1.9e-09 m2/s
same,thermal conductivity,296.36 K,0.1358 ± 0.0013 W/m/K
same,thermal conductivity,296.53 K,0.1356 ± 0.0013 W/m/K
same,thermal conductivity,296.66 K,0.1356 ± 0.0013 W/m/K
same,thermal diffusivity,296.93 K,8.99e-08 ± 1.8e-09 m2/s
same,thermal diffusivity,297.35 K,9.01e-08 ± 1.8e-09 m2/s
same,thermal diffusivity,297.65 K,9.02e-08 ± 1.8e-09 m2/s
same,thermal conductivity,313.44 K,0.1319 ± 0.0013 W/m/K
same,thermal conductivity,313.6 K,0.1317 ± 0.0013 W/m/K
same,thermal conductivity,313.73 K,0.1317 ± 0.0013 W/m/K
same,thermal diffusivity,314.03 K,8.71e-08 ± 1.8e-09 m2/s
same,thermal diffusivity,314.41 K,8.63e-08 ± 1.7e-09 m2/s
same,thermal diffusivity,314.7 K,8.63e-08 ± 1.7e-09 m2/s
same,thermal conductivity,331.99 K,0.1274 ± 0.0012 W/m/K
same,thermal conductivity,332.16 K,0.1274 ± 0.0012 W/m/K
same,thermal conductivity,332.28 K,0.1272 ± 0.0012 W/m/K
same,thermal diffusivity,332.56 K,8.28e-08 ± 1.7e-09 m2/s
same,thermal diffusivity,332.96 K,8.25e-08 ± 1.7e-09 m2/s
same,thermal diffusivity,333.24 K,8.21e-08 ± 1.7e-09 m2/s
"Cc1cccc(C)c1 [1,3-dimethylbenzene]",thermal conductivity,258.17 K,0.1393 ± 0.0011 W/m/K
same,thermal conductivity,258.42 K,0.1391 ± 0.0011 W/m/K
same,thermal conductivity,258.58 K,0.1391 ± 0.0011 W/m/K
same,thermal diffusivity,259.01 K,9.79e-08 ± 1.9e-09 m2/s
same,thermal diffusivity,259.67 K,9.79e-08 ± 1.9e-09 m2/s
same,thermal diffusivity,260.12 K,9.82e-08 ± 1.9e-09 m2/s
same,thermal conductivity,275.04 K,0.1353 ± 0.0011 W/m/K
same,thermal conductivity,275.28 K,0.1353 ± 0.0011 W/m/K
same,thermal conductivity,275.44 K,0.1352 ± 0.0011 W/m/K
same,thermal diffusivity,275.95 K,9.46e-08 ± 1.8e-09 m2/s
same,thermal diffusivity,276.57 K,9.45e-08 ± 1.8e-09 m2/s
same,thermal diffusivity,277 K,9.44e-08 ± 1.8e-09 m2/s
same,thermal conductivity,287.36 K,0.1323 ± 0.001 W/m/K
same,thermal conductivity,287.6 K,0.1322 ± 0.001 W/m/K
same,thermal conductivity,287.77 K,0.132 ± 0.001 W/m/K
same,thermal diffusivity,288.27 K,9.16e-08 ± 1.8e-09 m2/s
same,thermal diffusivity,288.91 K,9.19e-08 ± 1.8e-09 m2/s
same,thermal diffusivity,289.35 K,9.17e-08 ± 1.8e-09 m2/s
same,thermal conductivity,294.07 K,0.1305 ± 0.001 W/m/K
same,thermal conductivity,294.32 K,0.1305 ± 0.001 W/m/K
same,thermal conductivity,294.49 K,0.1304 ± 0.001 W/m/K
same,thermal diffusivity,294.99 K,9.03e-08 ± 1.7e-09 m2/s
same,thermal diffusivity,295.64 K,9.06e-08 ± 1.7e-09 m2/s
same,thermal diffusivity,296.09 K,9.03e-08 ± 1.7e-09 m2/s
same,thermal conductivity,311.74 K,0.126 ± 0.001 W/m/K
same,thermal conductivity,312 K,0.1259 ± 0.001 W/m/K
same,thermal conductivity,312.18 K,0.1258 ± 0.001 W/m/K
same,thermal diffusivity,312.68 K,8.65e-08 ± 1.7e-09 m2/s
same,thermal diffusivity,313.34 K,8.66e-08 ± 1.7e-09 m2/s
same,thermal diffusivity,313.8 K,8.64e-08 ± 1.7e-09 m2/s
same,thermal conductivity,328.79 K,0.1218 ± 0.00098 W/m/K
same,thermal conductivity,329.04 K,0.1216 ± 0.00097 W/m/K
same,thermal conductivity,329.22 K,0.1215 ± 0.00097 W/m/K
same,thermal diffusivity,329.74 K,8.28e-08 ± 1.6e-09 m2/s
same,thermal diffusivity,330.36 K,8.22e-08 ± 1.6e-09 m2/s
same,thermal diffusivity,330.83 K,8.22e-08 ± 1.6e-09 m2/s
"C1=CCCC=C1 [1,3-cyclohexadiene]",thermal conductivity,258.35 K,0.1451 ± 0.0014 W/m/K
same,thermal conductivity,258.52 K,0.1449 ± 0.0014 W/m/K
same,thermal conductivity,258.62 K,0.1448 ± 0.0014 W/m/K
same,thermal diffusivity,258.89 K,8.41e-08 ± 1.7e-09 m2/s
same,thermal diffusivity,259.3 K,8.45e-08 ± 1.7e-09 m2/s
same,thermal diffusivity,259.56 K,8.41e-08 ± 1.7e-09 m2/s
same,thermal conductivity,264.66 K,0.1428 ± 0.0014 W/m/K
same,thermal conductivity,264.8 K,0.1426 ± 0.0014 W/m/K
same,thermal conductivity,264.89 K,0.1424 ± 0.0014 W/m/K
same,thermal diffusivity,265.09 K,7.72e-08 ± 1.6e-09 m2/s
same,thermal diffusivity,265.41 K,7.72e-08 ± 1.6e-09 m2/s
same,thermal diffusivity,265.61 K,7.69e-08 ± 1.6e-09 m2/s
same,thermal conductivity,279.17 K,0.138 ± 0.0013 W/m/K
same,thermal conductivity,279.31 K,0.1379 ± 0.0013 W/m/K
same,thermal conductivity,279.41 K,0.1378 ± 0.0013 W/m/K
same,thermal diffusivity,279.59 K,7.36e-08 ± 1.5e-09 m2/s
same,thermal diffusivity,279.93 K,7.41e-08 ± 1.5e-09 m2/s
same,thermal diffusivity,280.16 K,7.41e-08 ± 1.5e-09 m2/s
same,thermal conductivity,296.25 K,0.1334 ± 0.0013 W/m/K
same,thermal conductivity,296.51 K,0.1332 ± 0.0013 W/m/K
same,thermal conductivity,296.69 K,0.1331 ± 0.0013 W/m/K
same,thermal diffusivity,297.24 K,8.95e-08 ± 1.8e-09 m2/s
same,thermal diffusivity,297.94 K,8.98e-08 ± 1.8e-09 m2/s
same,thermal diffusivity,298.42 K,8.98e-08 ± 1.8e-09 m2/s
same,thermal conductivity,313.95 K,0.1278 ± 0.0012 W/m/K
same,thermal conductivity,314.22 K,0.1276 ± 0.0012 W/m/K
same,thermal conductivity,314.41 K,0.1275 ± 0.0012 W/m/K
same,thermal diffusivity,314.96 K,8.51e-08 ± 1.7e-09 m2/s
same,thermal diffusivity,315.67 K,8.53e-08 ± 1.7e-09 m2/s
same,thermal diffusivity,316.17 K,8.51e-08 ± 1.7e-09 m2/s
same,thermal conductivity,328.56 K,0.1232 ± 0.0012 W/m/K
same,thermal conductivity,328.84 K,0.1231 ± 0.0012 W/m/K
same,thermal conductivity,329.08 K,0.1231 ± 0.0012 W/m/K
same,thermal diffusivity,329.6 K,8.17e-08 ± 1.6e-09 m2/s
same,thermal diffusivity,330.32 K,8.17e-08 ± 1.6e-09 m2/s
same,thermal diffusivity,330.99 K,8.19e-08 ± 1.6e-09 m2/s
